Source: article PMC11847361, “Design and screening of novel molecular compounds targeting lactate dehydrogenase of Babesia microti” (Parasites & Vectors, 2025)
“Also recorded” adds a separate entry of the source. Read-outs that look alike come from different tables or passages of the source.

Assays:
human LDH-M (LDH-A4) = biological target: human LDH-M (LDH-A4); design: method as in PMID 9748363; settings: cited from earlier work
[1] = test system: Plasmodium falciparum LDH; design: method as in PMID 9748363; settings: cited from earlier work
[2] = test system: LDH activity in B. microti; settings: cited from earlier work; for IC50: previous work
rBmLDH [3] = biological target: T1, rBmLDH (Babesia microti, UniProt I7J7V6); format: biochemical; settings: pH 9.5; read-out: BmLDH IC50
T1 sequence (I7J7V6 1-332): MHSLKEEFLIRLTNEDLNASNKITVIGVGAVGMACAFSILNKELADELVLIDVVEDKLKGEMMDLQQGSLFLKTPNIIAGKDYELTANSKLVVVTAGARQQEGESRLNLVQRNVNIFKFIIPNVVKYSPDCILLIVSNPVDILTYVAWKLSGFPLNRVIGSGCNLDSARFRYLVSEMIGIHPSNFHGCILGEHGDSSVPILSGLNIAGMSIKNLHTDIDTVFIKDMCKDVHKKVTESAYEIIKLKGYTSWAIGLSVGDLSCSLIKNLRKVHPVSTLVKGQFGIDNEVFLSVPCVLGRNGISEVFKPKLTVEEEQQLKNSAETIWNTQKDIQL

rBmLDH [4] = biological target: T1, rBmLDH; format: binding; settings: for Kd: read-out: equilibrium dissociation constant (Kd)
in vitro = format: cell-based; settings: African green monkey
Method: The mycoplasma-free Vero cell line (ATCC-CCL-81, immortalized cells) was cryopreserved in liquid nitrogen with DMSO at the National Key Laboratory of Agricultural Microbiology, Huazhong Agricultural University, China. The cytotoxicity of compounds TA and TB was assessed in Vero cells using the CCK-8 assay (Vazyme). Briefly, Vero cells (100 µL, 10,000 cells/well) were cultured in Dulbecco’s modified Eagle medium (DMEM) supplemented with 10% fetal bovine serum (FBS) and 100 U/mL penicillin–streptomycin at 37 ℃ with 5% CO2 for 24 h. The cells were then treated with varying concentrations of TA (2000, 1000, 500, 250, and 125 μM) or TB (800, 400, 200, 100, and 50 μM) for 72 h. After the treatment period, the medium containing TA and TB was replaced with fresh medium. Subsequently, 10 µL of CCK-8 solution was added to each well, and the plate was incubated for an additional 3 h. Absorbance was measured at 450 nm using a multifunctional enzyme marker (Envision, PE, USA). Stock solutions of TA and TB were prepared at a concentration of 100 mM in absolute ethanol. Doxorubicin hydrochloride at 40 µM served as the positive control, while 2% absolute ethanol served as the negative control. The concentration required to achieve 50% cytotoxicity (CC50) values were calculated using GraphPad Prism 8, and all cytotoxicity assays were performed in triplicate.

B. microti = experiment: In vitro growth inhibition of B. microti; format: cell-based; settings: Babesia microti, Erythrocyte, 72 h, read-out: B. microti IC50 (growth inhibition)
Method: Once parasitemia reached 60%, blood was collected from the tails of the mice, and the initial percent parasitized erythrocytes (PPE) was diluted to approximately 0.8% using healthy mouse erythrocytes. […] Cultures were incubated for 72 h at 37 ℃ in a gas mixture of 2% O2, 5% CO2, and 93% N2 [23, 24]. After incubation, blood smears were prepared, stained with Giemsa, and the parasitemia rate was calculated. All experiments were performed in triplicate.

SMILES | IC50 [2] [µM] | IC50 (rBmLDH [3]) [µM] | binding capacity/affinity to rBmLDH compared with lead compound DHNA (rBmLDH [4]) | Kd (rBmLDH [4]) [µM] | CC50 at 72 h (in vitro) [µM] | also measured
CCCc1c(O)c(O)c(C(=O)O)c2cc(Cc3ccccc3)c(C)cc12 [Compound 11F] | – | – | – | – | – | Ki (human LDH-M (LDH-A4)): 0.05 µM; Ki [1]: 0.3 µM
O=C(O)c1cc2cc(Br)ccc2c(Br)c1O [DBHCA, 1,6-dibromo-2-hydroxynapthalene 3-carboxylic acid] | 52.7 | – | – | – | – | –
O=C(O)c1cc2cccc(O)c2cc1O [DHNA, 3,5-dihydroxy-2-naphthoxylic acid] | 30 | – | – | – | – | –
Cc1cc2c(C(C)C)c(O)c(O)c(C=O)c2c(O)c1-c1c(C)cc2c(C(C)C)c(O)c(O)c(C=O)c2c1O [Gossypol] | – | – | – | – | – | concentration that significantly inhibits LDH activity in B. microti ([2]; in vitro): 592 nM
O=C(O)c1ccccc1Cc1ccc2ccc(O)cc2c1 [TA] | – | 71.6 | over a threefold increase in binding capacity; also recorded: more than three times higher affinity | 11.3 | 1030 | IC50 (B. microti; in vitro culture in mouse erythrocytes, 37 ℃): 122 µM
O=C(O)c1cccc(-c2ccc3ccc(O)cc3c2)c1 [TB] | – | 23.8 | over a threefold increase in binding capacity; also recorded: more than three times higher affinity | 13.2 | 434 | IC50 (B. microti; in Mus musculus): 112 µM
